ChEMBL document CHEMBL2073912, “Biochemical basis of polyvalency as a strategy for enhancing the efficacy of P-glycoprotein (ABCB1) modulators: stipiamide homodimers separated with defined-length spacers reverse drug efflux with greater efficacy” (Biochemistry, 2004)

target: ATP-dependent translocase ABCB1 (Homo sapiens, UniProt P08183); assay: TP_TRANSPORTER: increase in bodipy-FL-prazosin intracellular accumulation in MDR1-expressing NIH-3T3 cells; assay type: functional, cell-based; details: mouse, nih3t3
Sequence (P08183 whole entry): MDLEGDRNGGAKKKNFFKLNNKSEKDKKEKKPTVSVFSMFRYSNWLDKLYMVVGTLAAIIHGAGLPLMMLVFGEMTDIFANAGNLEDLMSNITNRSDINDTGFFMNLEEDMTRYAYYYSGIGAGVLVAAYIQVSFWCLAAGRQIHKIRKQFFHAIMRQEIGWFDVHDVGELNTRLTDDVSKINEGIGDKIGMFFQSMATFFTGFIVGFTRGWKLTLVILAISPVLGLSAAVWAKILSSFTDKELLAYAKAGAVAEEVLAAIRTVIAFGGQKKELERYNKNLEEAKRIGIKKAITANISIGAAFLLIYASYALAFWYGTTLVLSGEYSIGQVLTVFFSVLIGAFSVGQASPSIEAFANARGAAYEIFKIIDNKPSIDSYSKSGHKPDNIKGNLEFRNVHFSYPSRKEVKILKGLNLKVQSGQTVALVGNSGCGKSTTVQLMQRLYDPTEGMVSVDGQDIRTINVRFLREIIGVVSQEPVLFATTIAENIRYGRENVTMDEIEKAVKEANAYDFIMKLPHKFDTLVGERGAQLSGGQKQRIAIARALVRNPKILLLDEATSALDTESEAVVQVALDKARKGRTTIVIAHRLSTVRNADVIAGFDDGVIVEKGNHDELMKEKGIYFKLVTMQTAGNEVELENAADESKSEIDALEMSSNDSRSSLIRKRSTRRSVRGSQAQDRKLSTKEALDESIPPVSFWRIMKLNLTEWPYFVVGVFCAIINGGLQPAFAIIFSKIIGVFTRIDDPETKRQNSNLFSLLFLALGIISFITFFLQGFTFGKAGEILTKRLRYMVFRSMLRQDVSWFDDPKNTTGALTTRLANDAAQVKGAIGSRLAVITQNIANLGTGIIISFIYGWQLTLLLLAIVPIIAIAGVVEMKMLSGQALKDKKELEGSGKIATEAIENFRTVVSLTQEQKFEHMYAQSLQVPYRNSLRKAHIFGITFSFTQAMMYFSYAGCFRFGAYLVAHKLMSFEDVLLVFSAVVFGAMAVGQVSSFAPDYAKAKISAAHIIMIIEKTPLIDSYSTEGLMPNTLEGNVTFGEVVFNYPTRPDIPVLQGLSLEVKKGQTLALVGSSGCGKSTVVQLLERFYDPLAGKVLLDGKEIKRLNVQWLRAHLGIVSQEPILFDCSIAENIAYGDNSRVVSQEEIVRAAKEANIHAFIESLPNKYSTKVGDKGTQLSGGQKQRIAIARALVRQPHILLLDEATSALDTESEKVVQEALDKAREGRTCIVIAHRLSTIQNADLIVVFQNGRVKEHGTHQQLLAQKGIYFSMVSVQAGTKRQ

Structure (SMILES)	Activity
C/C(=C\CCC#C/C=C/C(C)C(O)/C(C)=C/CCc1cccc2ccccc12)C(=O)NCCOCCOCCOCCOCCOCCOCCOCCOCCOCCOCCOCCOCNC(=O)/C(C)=C/CCC#C/C=C/C(C)C(O)/C(C)=C/CCc1ccc2ccccc2c1 (stereo unspecified)	inhibitor [+]
C/C(=C\CCC#C/C=C/C(C)C(O)/C(C)=C/CCc1cccc2ccccc12)C(=O)NCCOCCOCCOCCOCCOCCOCCOCCOCNC(=O)/C(C)=C/CCC#C/C=C/C(C)C(O)/C(C)=C/CCc1ccc2ccccc2c1 (stereo unspecified)	inhibitor [+]
C/C(=C\CCC#C/C=C/C(C)C(O)/C(C)=C/CCc1ccc2ccccc2c1)C(=O)NCCOCCOCCOCCOCCOCCNC(=O)/C(C)=C/CCC#C/C=C/C(C)C(O)/C(C)=C/CCc1cccc2ccccc12 (stereo unspecified)	inhibitor [+]
C/C(=C\CCC#C/C=C/C(C)C(O)/C(C)=C/CCc1cccc2ccccc12)C(=O)NCCOCCOCNC(=O)/C(C)=C/CCC#C/C=C/C(C)C(O)/C(C)=C/CCc1ccc2ccccc2c1 (stereo unspecified)	is not an inhibitor [-]
C/C(=C\CCC#C/C=C/C(C)C(O)/C(C)=C/CCc1ccc2ccccc2c1)C(=O)NCNC(=O)/C(C)=C/CCC#C/C=C/C(C)C(O)/C(C)=C/CCc1cccc2ccccc12 (stereo unspecified)	is not an inhibitor [-]
C/C(=C\CCC#C/C=C/C(C)C(O)/C(C)=C/CCc1cccc2ccccc12)C(=O)NCCOCCOCCOCCOCCOCCO (stereo unspecified) [STIPIAMIDE MONOMER]	is not an inhibitor [-]
